Measured values taken from patent US11180479B2 (HAPLOGEN GmbH, priority 2017, dated 2021).

Assays:
PLA2G16 = biological target: T1, PLA2G16 (Homo sapiens, UniProt P53816); assay: Enzyme activity assay for PLA2G16 (Red/Green BODIPY PC-A2 fluorescence); format: biochemical; conditions: His-tagged PLA2G16, 4 min pre-incubation, compound 2 nM to 50 μM; first symbol in parentheses
T1 construct: Hexa-His (N); made in house; host or cells: E. coli BL21(DE3)
T1 sequence (P53816 1-162): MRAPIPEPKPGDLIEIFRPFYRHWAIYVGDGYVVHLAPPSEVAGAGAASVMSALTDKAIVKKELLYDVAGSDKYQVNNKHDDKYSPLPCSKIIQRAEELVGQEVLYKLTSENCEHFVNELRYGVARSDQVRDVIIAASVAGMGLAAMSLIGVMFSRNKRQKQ
Excerpt: Purification and Enzyme Activity Assay for PLA2G16
A cDNA for PLA2G16 (NM_007069) was custom-synthesized by Genscript (Piscataway, USA) and inserted into a pET-based bacterial expression vector [Moffatt, B. A. and Studier, F. W. (1986) J. Mol. Biol. 189, 113-130; Rosenberg, A. H., Lade, B. N., Chui, D., Lin, S., Dunn, J. J., and Studier, F. W. (1987) Gene 56, 125-135], enabling the expression of N-terminally Hexa-His-tagged PLA2G16. E. coli BL21(DE3) (Agilent) were transformed with pET-His-PLA2G16 according to the manufacturer's instructions and plated on Carbenicillin-containing agar plates (final concentration: 100 μg/mL). A single clone was inoculated in 100 mL LB medium supplemented with 100 μg/mL Carbenicillin and the inoculated culture was grown at 37° C. overnight in a rotary shaker. On the next day, the bacterial culture was diluted in LB medium supplemented with 100 μg/mL Carbenicillin (30 mL overnight culture in 800 mL total culture volume). Bacteria were grown at 37° C. until the OD600 reached 0.6. Gene expression was induced by addition of 1 mM isopropyl-β-D-thiogalactopyranosid (IPTG) for 2 h at 18° C. Subsequently, bacteria were harvested by centrifugation (15 min; 10,000×g; 4° C.) and frozen at −80° C. The bacterial pellet was resuspended in Buffer A (50 mM Tris/HCl pH 7.5, 500 mM NaCl, 5% glycerol, 5 mM β-Mercaptoethanol and 1 mM PMSF) and lysed by addition of 1 mg/mL lysozyme (Sigma Aldrich) and 100 μg/mL DNasel-(Roche). The sample was incubated at 30° C. for 30 min to allow lysis to occur. Then, the lysate was cleared by centrifugation (15,000×g, 15 min, 4° C.) and incubated with 1.5 mL Ni-NTA agarose suspension (Qiagen) for 60 min at 4° C. The Ni-NTA agarose was washed with 10 mL Buffer A. Bound protein was eluted by applying a manual gradient of Buffer A supplemented with increasing concentrations of imidazole (Sigma Aldrich; 25/50/75/100/250 mM). Purified fractions were analyzed by SDS-PAGE followed by Coomassie staining to assess the purity.
Activity of the protein was assessed as follows:
Red/Green BODIPY® PC-A2 (Invitrogen, 1 mM in DMSO) was mixed with equal volumes of 1,2-Dioleoyl-sn-glycero-3-phosphocholine (DOPC; Sigma Aldrich, 10 mM in Ethanol) and 1,2-Dioleoyl-sn-glycero-3-phospho-rac-(1-glycerol) (DOPG; Sigma Aldrich, 10 mM in Ethanol) and 0.5 volumes of Cholesterol (CHOL; Sigma Aldrich, 10 mM in Ethanol) and vortexed for 5 s. The mixture (Red/Green BODIPY® PC-A2/DOPC/DOPG/CHOL) was diluted 1:91.4 in activity assay buffer (50 mM Tris/HCl pH 8.5, 100 mM NaCl) using a small-orifice pipette tip under constant vortexing. In the following, this preparation will be referred to as the “substrate solution”.
In order to evaluate their inhibitory potential, compounds were dissolved at 10 mM concentration in DMSO and directly spotted into assay plates (Corning, Cat. No. 3576) using acoustic liquid transfer (Labcyte Echo 525). Each compound was spotted at increasing concentrations, ranging from 2 nM to 50 μM (concentration in the final assay volume). 50 μl of PLA2G16 enzyme solution (diluted in activity buffer, supplemented with 5 mM L-Glutathione; Sigma Aldrich) was pre-incubated with compounds for 4 min., followed by addition of 50 μl of substrate solution. Fluorescence was recorded immediately after substrate addition for a total time of 10 min. using a SpectraMax M5 multimode reader (Excitation wavelength: 480 nm, emission wavelength: 530 nm). The relative increase of fluorescence over time is referred to as the enzyme activity. Half-maximal inhibitory concentrations (IC50) were derived by non-linear regression analysis using the drc package in R (R Development. Core Team, 2005).

[1] = tested on: picornaviruses (CVB1, HRV-A2, HRV-A23, EV-68); assay: Anti-picornavirus cytopathic effect (CPE) reduction assay on HeLa H1 cells; format: cell-based; conditions: 48 h, category from averaging EC50 values of four picornaviruses (CVB1, HRV-A2, HRV-A23, EV68), second symbol in parentheses
Experimental: Anti-Picornavirus Assay in Mammalian Cell Culture
The antiviral activity of selected compounds was tested using a cytopathic effect (CPE) reduction assay on HeLa H1 cells (ATCC CRL-1958). Briefly, cells were seeded in 96-well dishes (2×10^4 cells/well) in DMEM medium (Life technologies) supplemented with 10% FBS and PenStrep solution (100 U/mL Penicillin and 100 μg/mL streptomycin) and incubated at 37° C., 5% CO2 overnight. The next day, cells were pre-treated with serial dilutions of the compound in DMEM medium supplemented with 2% FBS and PenStrep for 2 h at 37° C., 5% CO2. Next, cells were infected with virus (CVB1, HRV-A2, HRV-A23, EV-68) at an multiplicity of infection (MOI) which results in a complete virus-induced CPE within 2 days in control wells (infected and vehicle-treated). After 48 h, supernatants were aspirated and 50 μl/well of CellTiterBlue reagent (Promega) diluted 1:5 in DMEM+2% FBS, was added to the cells. Plates were returned to the incubator and allowed to develop for 1.5 h. After that, plates were equilibrated to RT and subsequently, fluorescence was recorded (Excitation wavelength: 560 nm; emission wavelength: 590 nm) using a SpectraMax M5 multimode plate reader. Viability of cells was calculated according to the formula: V=(RFUCpd−RFUVeh/(RFUM−RFUVeh), where RFUCpd refers to infected and compound-treated cells, RFUVeh to infected and vehicle-treated cells and RFUM to uninfected and vehicle treated cells. Half-maximal effective concentrations (EC50) were calculated by non-linear regression analysis using the drc package in R (R Development. Core Team, 2005). EC50 categories as presented in Table 2 were calculated by averaging the EC50 values from four picornaviruses (CVB1, HRV-A2, HRV-A23, EV68).

IC50 (PLA2G16) | EC50 [1] | Structure (SMILES)
< 1 µM | 1 to 10 µM | O=C(NC1CC1)C(=O)[C@H]1CN(Cc2ncccn2)C(=O)[C@@H]1Cc1ccccc1 (racemic) [FP-35, Rac-2-[(3R,4R)-4-benzyl-5-oxo-1-[(pyrimidin-2-yl)methyl]pyrrolidin-3-yl]-N-cyclopropyl-2-oxoacetamide]
< 1 µM | 1 to 10 µM | CCNC(=O)C(=O)[C@H]1CN(Cc2ncccn2)C(=O)[C@@H]1Cc1ccccc1 (racemic) [FP-36, Rac-2-[(3R,4R)-4-benzyl-5-oxo-1-[(pyrimidin-2-yl)methyl]pyrrolidin-3-yl]-N-ethyl-2-oxoacetamide]
< 1 µM | 1 to 10 µM | O=C(NC1CC1)C(=O)[C@H]1CN(Cc2ccncn2)C(=O)[C@@H]1Cc1ccccc1 (racemic) [FP-37, Rac-2-[(3R,4R)-4-benzyl-5-oxo-1-[(pyrimidin-4-yl)methyl]pyrrolidin-3-yl]-N-cyclopropyl-2-oxoacetamide]
< 1 µM | 1 to 10 µM | CN1C[C@H](C(=O)C(=O)NC2CC2)[C@@H](C2CCCCC2)C1=O (racemic) [FP-38, Rac-2-[(3R,4R)-4-cyclohexyl-1-methyl-5-oxopyrrolidin-3-yl]-N-cyclopropyl-2-oxoacetamide]
< 1 µM | 1 to 10 µM | COCCN1C[C@H](C(=O)C(=O)NC2CC2)[C@@H](Cc2ccccc2)C1=O (racemic) [FP-39, Rac-2-[(3R,4R)-4-benzyl-1-(2-methoxyethyl)-5-oxopyrrolidin-3-yl]-N-cyclopropyl-2-oxoacetamide]
< 1 µM | < 1 µM | CC(C)CNC(=O)C(=O)[C@H]1CN(CC(N)=O)C(=O)[C@@H]1Cc1ccccc1 (racemic) [FP-40, Rac-2-[(3R,4R)-4-benzyl-1-(carbamoylmethyl)-5-oxopyrrolidin-3-yl]-N-(2-methylpropyl)-2-oxoacetamide]
< 1 µM | < 1 µM | Cc1cc(CN2C[C@H](C(=O)C(=O)NC3CC3)[C@@H](Cc3ccccc3)C2=O)no1 (racemic) [FP-41, Rac-2-[(3R,4R)-4-benzyl-1-[(5-methyl-1,2-oxazol-3-yl)methyl]-5-oxopyrrolidin-3-yl]-N-cyclopropyl-2-oxoacetamide]
< 1 µM | 1 to 10 µM | Cn1ncnc1CN1C[C@H](C(=O)C(=O)NC2CC2)[C@@H](Cc2ccccc2)C1=O (racemic) [FP-42, Rac-2-[(3R,4R)-4-benzyl-1-[(1-methyl-1H-1,2,4-triazol-5-yl)methyl]-5-oxopyrrolidin-3-yl]-N-cyclopropyl-2-oxoacetamide]
< 1 µM | 1 to 10 µM | CNC(=O)CN1C[C@H](C(=O)C(=O)NCC(C)C)[C@@H](Cc2ccccc2)C1=O (racemic) [FP-43, Rac-2-[(3R,4R)-4-benzyl-1-[(methylcarbamoyl)methyl]-5-oxopyrrolidin-3-yl]-N-(2-methylpropyl)-2-oxoacetamide]
< 1 µM | < 1 µM | CC(C)CNC(=O)C(=O)[C@H]1CN(CC(=O)N(C)C)C(=O)[C@@H]1Cc1ccccc1 (racemic) [FP-44, Rac-2-[(3R,4R)-3-benzyl-4-{[(2-methylpropyl)carbamoyl]carbonyl}-2-oxopyrrolidin-1-yl]-N,N-dimethylacetamide]
< 1 µM | 1 to 10 µM | Cc1cc(CN2C[C@H](C(=O)C(=O)NC3CC3)[C@@H](Cc3ccccc3)C2=O)on1 (racemic) [FP-46, Rac-2-[(3R,4R)-4-benzyl-1-[(3-methyl-1,2-oxazol-5-yl)methyl]-5-oxopyrrolidin-3-yl]-N-cyclopropyl-2-oxoacetamide]
< 1 µM | 1 to 10 µM | CC(C)CNC(=O)C(=O)[C@H]1CN(CCN2CCCC2=O)C(=O)[C@@H]1Cc1ccccc1 (racemic) [FP-47, Rac-2-[(3R,4R)-4-benzyl-5-oxo-1-[2-(2-oxopyrrolidin-1-yl)ethyl]pyrrolidin-3-yl]-N-(2-methylpropyl)-2-oxoacetamide]
< 1 µM | 1 to 10 µM | O=C(NC1CC1)C(=O)[C@H]1CN(CCN2CCCC2=O)C(=O)[C@@H]1Cc1ccccc1 (racemic) [FP-48, Rac-2-[(3R,4R)-4-benzyl-5-oxo-1-[2-(2-oxopyrrolidin-1-yl)ethyl]pyrrolidin-3-yl]-N-cyclopropyl-2-oxoacetamide]
< 1 µM | < 1 µM | O=C(NC1CC1)C(=O)[C@H]1CN(CC(F)F)C(=O)[C@@H]1Cc1ccccc1 (racemic) [FP-49, Rac-2-[(3R,4R)-4-benzyl-1-(2,2-difluoroethyl)-5-oxopyrrolidin-3-yl]-N-cyclopropyl-2-oxoacetamide]
< 1 µM | < 1 µM | CCNC(=O)C(=O)[C@H]1CN(CC(F)F)C(=O)[C@@H]1Cc1ccccc1 (racemic) [FP-50, Rac-2-[(3R,4R)-4-benzyl-1-(2,2-difluoroethyl)-5-oxopyrrolidin-3-yl]-N-ethyl-2-oxoacetamide]
< 1 µM | 1 to 10 µM | Cn1cnc(CN2C[C@H](C(=O)C(=O)NC3CC3)[C@@H](Cc3ccc(F)cc3)C2=O)n1 (racemic) [FP-51, Rac-N-cyclopropyl-2-[(3R,4R)-4-[(4-fluorophenyl)methyl]-1-[(1-methyl-1H-1,2,4-triazol-3-yl)methyl]-5-oxopyrrolidin-3-yl]-2-oxoacetamide]
< 1 µM | > 10 µM | Cn1ncnc1CN1C[C@H](C(=O)C(=O)NC2CC2)[C@@H](Cc2ccc(F)cc2)C1=O (racemic) [FP-52, Rac-N-cyclopropyl-2-[(3R,4R)-4-[(4-fluorophenyl)methyl]-1-[(1-methyl-1H-1,2,4-triazol-5-yl)methyl]-5-oxopyrrolidin-3-yl]-2-oxoacetamide]
